Earlier results on four compounds are cited in patent US6110491A, “Compound-loaded liposomes and methods for their preparation” (Hermes Biosciences, Inc., priority 1997, dated 2000).

≈ marks a conversion by molar mass, not a printed value. Like-named read-outs stand apart in the source and are kept apart here.

For this series the following is noted: cited from earlier work; for pH-dependent solubility: 37° C.

For the compound `Nc1cc(-c2ccncc2)c[nH]c1=O` [amrinone], the pH dependent solubility reads like this: (pH 4.1) 25 mg/ml; (pH 6) 0.9 mg/ml; (pH 8) 0.9 mg/ml.

As for `Nc1nc(O)c2ncn(COC(CO)CO)c2n1` [gancyclovir], the solubility in water is, setting by setting: (alkaline pH) more than 100 mg/mL; (pH 7.4) 2.5 mg/mL (≈ 9.79 mM).

On to `CC(C)Cc1ccc(C(C)C(=O)O)cc1` (centres unmarked) [ibuprofen], for which the “solubility (in words)” value (alkaline pH) is “soluble at alkaline pH” and the “solubility (in words)” value (neutral pH) was “poorly soluble at neutral pH”.

Consider `CCn1cc(C(=O)O)c(=O)c2cc(F)c(N3CCNCC3)cc21` [norfloxacin], for which the pH-dependent solubility was 2.8 mg/ml (pH 6.5), 1.5 mg/ml (pH 7.0), 1.9 mg/ml (pH 8.0) and more than 40 mg/ml (pH <5.5).
